From the METLIN SMRT retention time set (Domingo-Almenara et al. 2019)

test: gradient 5% acetonitrile 3 min, to 50% in 2 min, to 85% in 15 min, held 3 min, 100 µL/min; details: column: Zorbax Extend-C18 2.1 x 50 mm; eluents: water / acetonitrile, 0.1% formic acid
Summary of the method: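 In both positive and negative ionization mode, a quadrupole time-of-flight mass spectrometer coupled to HPLC analyzed pure standards run in mixtures of ~100 molecules. The Zorbax Extend-C18 column (2.1 × 50 mm, 1.8 μm) was operated at 100 μL/min with water and acetonitrile, each containing 0.1% formic acid. The dead volume was 40 μL and the dwell volume 900 μL. Retention time came from adduct peaks that were computationally picked and individually inspected by hand.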

Row | Structure (SMILES) | RP-LC retention time
1 | COc1ccc(C(=O)N2CCN(c3cc(-c4cccs4)[nH]n3)CC2)cc1F | 837 s
2 | Cc1ccc(CN2C(=O)NC3(CCCN(C(=O)c4ccc5c(c4)OCO5)C3)C2=O)cc1 (stereo not drawn) | 819 s
3 | Cc1cccc(NC(=O)c2cccn2Cc2noc(C3CC3)n2)c1C | 954 s
4 | Cc1ccc(-n2ncc3c(=O)n(Cc4nc(-c5ccc(OC(C)C)cc5)no4)cnc32)cc1Cl | 726 s
5 | O=C(Nc1nnc(C2CC(=O)N(c3ccccc3)C2)o1)c1ccc(Br)cc1 (stereo not drawn) | 766 s
6 | Cc1nn(C(C)C(=O)NCCCN2CCC(N3CCCCC3)CC2)c(=O)c2c1sc1ccccc12 (stereo not drawn) | 592 s
7 | CC(C)c1noc(-c2cc(=O)n(CC(=O)Nc3ccccc3)c3ccccc23)n1 | 972 s
8 | O=C(Nc1ccc2c(c1)CN(C(=O)c1cc(C3CC3)[nH]n1)CCO2)C1CC1 | 696 s
9 | COc1ccccc1N1CCN(c2cc(SCC(=O)Nc3ccc(F)cc3)ncn2)CC1 | 941 s
10 | CCC(=O)N1CCCC1c1nc(CCOCC2CCCC2)no1 (stereo not drawn) | 837 s
11 | CCCN1CCN(c2ncc3c(n2)CCN(Cc2cccc(Br)c2)C3)CC1 | 565 s
12 | O=C(Cn1c(=O)cc(C(=O)N2CCCC2)c2ccccc21)Nc1ccccc1Cl | 714 s
13 | CCOc1ccc(N2C(=O)C3N=NN(Cc4nc(-c5ccc6c(c5)OCO6)no4)C3C2=O)cc1 (stereo not drawn) | 963 s
14 | O=C(N1CCOC(c2ccc(C(F)(F)F)cc2)C1)C1(c2ccc(F)cc2)CC1 (stereo not drawn) | 1020 s
15 | COc1ccc(N2CCN(C(=O)c3c(C)oc4nc(C)nc(N5CCCC5)c34)CC2)cc1 | 694 s
16 | O=C(NC1CC1)c1ccc(-c2cccs2)nc1 | 716 s
17 | COc1ccccc1-c1nc(Cn2nnc(-c3nc(-c4ccc5c(c4)OCO5)no3)c2C)c(C)o1 | 700 s
18 | O=C(NCCN1CCCCC1)C1CCc2sc(C(=O)N3CCOCC3)cc2C1 (stereo not drawn) | 581 s
19 | CSc1ccc(CNC(=O)C2CCN(c3cc(=O)n(C)c(=O)n3C)CC2)cc1 | 694 s
20 | CC(C)(C)C(=O)N1CCC(C(=O)Nc2cccc(Br)c2)CC1 | 855 s

Row | Structure (SMILES) | RP-LC retention time
21 | Cc1ccc(-c2[nH]ncc2CN2CCC3(CCC3O)CC2)cc1 (stereo not drawn) | 577 s
22 | COC(=O)c1ncn2c1C(=O)N(Cc1ccc(C)cc1)C(C)(C(=O)NCc1ccc(C)cc1)C2 (stereo not drawn) | 788 s
23 | COc1cn2c(cc1=O)C(=O)N(CCNC(=O)c1cc(=O)c3ccccc3o1)CC2 | 562 s
24 | COC(=O)c1cn(CC(=O)Nc2cc(OC)ccc2OC)c2ccccc12 | 946 s
25 | Cc1ccc(CN2CCC(CNS(=O)(=O)c3ccc4c(c3)CCCC(=O)N4)CC2)cc1 | 762 s
26 | O=C(C1CCCN(c2cnc3nccnc3c2)C1)N1CCN(c2ccc(F)cc2)CC1 (stereo not drawn) | 746 s
27 | Cn1nc(N2CCC(NC(=O)Cc3cccs3)C2)ccc1=O (stereo not drawn) | 627 s
28 | O=C(Nc1cccnc1)C1CCCN(S(=O)(=O)c2cc(-c3noc(C4CCCC4)n3)cs2)C1 (stereo not drawn) | 825 s
29 | Cc1ccc2c(C(=O)N3CCN(C4CCCCC4)CC3)cc(NC(=O)C3CCC3)cc2n1 | 556 s
30 | Cc1ccc(C(=O)N2CCN(S(=O)(=O)c3cc4c5c(c3)CCC(=O)N5CCC4)CC2)cc1C | 850 s
31 | CCOc1ccc(-c2csc(C)n2)cc1S(=O)(=O)Nc1ccc(OC)cc1 | 940 s
32 | COc1ccc(CC(=O)NC(C)C(=O)Nc2nc3ccccc3[nH]2)c(Cl)c1 (stereo not drawn) | 676 s
33 | COc1cccc(-c2noc(Cc3nnc(-c4cc(C)cc(C)c4)o3)n2)c1OC | 1060 s
34 | CCCCc1ccc(NC(=O)Cn2nc3c(Sc4ccccc4)nccn3c2=O)cc1 | 1100 s
35 | CC1SC(C)C(=O)N(CC(=O)NCc2ccco2)C1=O (stereo not drawn) | 685 s
36 | CCc1noc(NC(C)=O)c1-c1ccc(OC)c(S(=O)(=O)N(C)c2ccc(C)cc2)c1 | 790 s
37 | CC1(C(=O)NC2CCCCC2)CN(S(=O)(=O)c2ccccc2)CC(=O)N1c1ccc(F)cc1 (stereo not drawn) | 959 s
38 | Cc1cc2c(cc1CNC(=O)Cn1cc(C(=O)c3ccco3)c3ccccc31)OCCCO2 | 837 s
39 | CCN1C[C@]2(OC(=O)c3ccccc3NC(C)=O)CCC(OC)[C@@]34C5C[C@@H]6C(OC)C[C@](O)([C@@H](CC23)[C@@H]14)C5(O)[C@H]6OC (stereo partly drawn) | 760 s
40 | COc1ccc(N2CCn3c(SCC(=O)Nc4nc5ccccc5s4)nnc32)cc1 | 742 s

Row | Structure (SMILES) | RP-LC retention time
41 | COCCN(Cc1ccc(Cl)cc1)Cc1cc(=O)n2ccccc2n1 | 635 s
42 | CC1(CNC(=O)NCCc2ccccc2)CCOCC1 | 696 s
43 | CCC1(CC=C2CCCCC2)C(=O)NC(=O)NC1=O | 863 s
44 | Cc1cc(C)cc(NS(=O)(=O)c2cc(-c3[nH]ncc3C(=O)N(C)C)oc2C)c1 | 718 s
45 | O=C(c1ccccc1F)N1CCN(c2cc(-c3cccs3)[nH]n2)CC1 | 771 s
46 | COc1cccc(CNC(=O)N2CCN(C3=CC4=NC(C)CN4C=N3)CC2)c1 (stereo not drawn) | 649 s
47 | COc1ccc(CNC(=O)CN2CCc3[nH]c4c(C)c(Cl)ccc4c(=O)c3C2)cc1 | 638 s
48 | COCC(=O)N1CCc2c([nH]c3ccccc23)C1c1ccc(SC)cc1 (stereo not drawn) | 998 s
49 | CC(C)(C)c1ccc(C(=O)NC2CCN(c3cc(-c4ccc(F)cc4)[nH]n3)C2)cc1 (stereo not drawn) | 899 s
50 | CC1=C(c2ccccc2)S(=O)(=O)N=C1N1CCCN(C(=O)c2ccc(C#N)cc2)CC1 | 777 s
51 | Cc1cc2c(cc1S(=O)(=O)N1CCCC1C(=O)Nc1cccc(C)c1C)OCC(=O)N2 (stereo not drawn) | 789 s
52 | CC1CCN(S(=O)(=O)c2cc(-c3nnc(C4CCCC4)o3)co2)CC1 | 1080 s
53 | CCC(CC)C(=O)N1CCC(Oc2nccnc2N(C)C)C1 (stereo not drawn) | 749 s
54 | CC1=C(c2ccc(F)cc2)S(=O)(=O)N=C1N1CCCN(C(=O)c2ccc(F)cc2)CC1 | 835 s
55 | COc1cc(C(=O)NCC(c2cccs2)N2CCOCC2)c([N+](=O)[O-])cc1OC (stereo not drawn) | 565 s
56 | CC(C)n1c(=O)sc2cc(S(=O)(=O)N3CCC(C(=O)NCc4cccs4)CC3)ccc21 | 885 s
57 | COc1ccc(-c2cc3c(=O)n(Cc4nc(-c5ccccc5Br)no4)ncn3n2)cc1 | 1090 s
58 | CCCN1CCCCc2cc(C(=O)N(C)CC(=O)NC)sc21 | 791 s
59 | COc1ccc(C(=O)Nc2nnc(C3CC(=O)N(c4ccc(Cl)cc4)C3)o2)cc1 (stereo not drawn) | 773 s

Now from value to compound:

Row | RP-LC retention time | Structure (SMILES)
60 | 668 s | CCOCC(=O)N1CCc2c(c(C(=O)N3CCCC(C(=O)Nc4ccccc4)C3)nn2C)C1 (stereo not drawn)
61 | 812 s | COCCn1cc(CCNC(=O)Nc2ccc(C)c(Cl)c2)c2cccnc21
62 | 623 s | CCCN1CCN(C(=O)Cn2nc(C)c3sc(-c4ccccc4)nc3c2=O)CC1
63 | 868 s | Cc1ccc(CNC(=O)Cn2c(=O)c3cc(-c4cccs4)nn3c3ncccc32)cc1
64 | 682 s | Cc1cc(NC(=O)c2ccc3c(c2)OCO3)sn1
65 | 787 s | CCCc1c(C(=O)O)nnn1-c1cc(C)ccc1F
66 | 1130 s | CCCCNc1onc(-c2ccc(F)cc2)c1C(=O)OC
67 | 767 s | Cc1ccc(CN2CCN(C3CCN(C(=O)NCc4ccc(F)cc4)CC3)C(=O)C2=O)cc1
68 | 610 s | CCOc1cc(N2CCN(C(=O)c3cc(Cl)ccc3OC)CC2)nc(C)n1
69 | 645 s | Cc1cc(C(=O)Nc2ccc3scnc3c2)no1
70 | 837 s | O=C(NC1CCN(c2nnc3ccc(Cl)cn23)CC1)c1ccc(C(F)(F)F)s1
71 | 943 s | CCN1C(=O)COc2ccc(-c3csc(NC(=O)c4ccc(OC)c(OC)c4)n3)cc21
72 | 929 s | CCc1noc(NC(C)=O)c1-c1ccc(C)c(S(=O)(=O)N2CCC(C)CC2)c1
73 | 651 s | Cc1ccc(CNC(=O)NCCCn2c(-c3ccncc3)nc3cccnc32)cc1
74 | 797 s | Cc1ccc(-c2nnc(CC(=O)NC3CCCC3)o2)cc1
75 | 863 s | Cc1ccc(-c2cc3c(N4CCCC(C(=O)NCC5CC5)C4)nccn3n2)c(C)c1 (stereo not drawn)
76 | 862 s | CCCn1c(=O)c2cc(C(=O)N3CCN(c4ccc(OC)cc4)CC3)nn2c2ccccc21
77 | 784 s | CCN1C(=O)COc2ccc(-c3nc(NC(=O)c4cccnc4)sc3C)cc21
78 | 579 s | O=C(O)C1CN(C(=O)c2ccc3c(c2)OCO3)C1
79 | 1110 s | COc1ccccc1CCc1nc(C2CC(=O)N(c3ccc(F)c(Cl)c3)C2)no1 (stereo not drawn)
80 | 709 s | O=C(NC1CC1)c1nc2ccccn2c1-c1ccc(F)cc1
81 | 657 s | Cc1cc(=O)n(CC(=O)Nc2ccccc2C)c(N2CCOCC2)n1
82 | 731 s | COc1ccc(CCNC(=O)c2ccc3c(c2)NC(=O)C2CCCCN32)cc1OC (stereo not drawn)
83 | 959 s | COc1ccc(N2CCN(c3cc(SCC(=O)Nc4ccc(F)cc4C)ncn3)CC2)cc1
84 | 872 s | COc1ccc2nc(C(=O)NCc3ccc(F)cc3Cl)cn2n1
85 | 661 s | CC(C)c1nnc2n1CCN(C(=O)c1ccc(Cl)s1)C2
86 | 725 s | Cc1cc(C(=O)Nc2cc(-c3ccco3)nn2CCO)no1
87 | 1270 s | CCn1c(=O)oc2cc(-c3noc(-c4cc(SC)ccc4Cl)n3)ccc21
88 | 864 s | Cc1ccc2[nH]cc(CCN3CC(C(=O)Nc4nnc(CC(C)(C)C)s4)CC3=O)c2c1 (stereo not drawn)
